According to patent US10653672B2, “Myogenesis promotor, muscle atrophy inhibitor, medical composition and TAZ activator” (National University Corporation Tokyo Medical and Dental …, priority 2014, dated 2020):
Several values for one entry are separate records, joined by “and”; a condition that tells them apart may be missing. Equal values may be shown once.

Legend:
calpain 1 = assay: Quantitative real-time PCR, calpain 1; format: cell-based, mouse; settings: C2C12 cells, 10 μM; for Normarized mRNA abundance, Calpain1: listed as IBS008738
Experimental: (1) Quantitative real-time PCR was performed with C2C12 cells immediately before the induction of muscle formation (0 h), and after culturing under differentiation condition in a culture medium added with IBS008738 or DMSO at a concentration of 10 μM for 24 hours (24 h) and 72 hours (72 h), respectively. […] The line and error bar indicate the average value and the standard error, **p<0.05, and ns refers to not significant.
Evaluation was also performed under the same condition on M-cadherin, calpain 1 and caveolin 3, which are myofusion markers. As a result, there was no increase in the degree of gene transcription in the case with IBS008738.
The quantitative real-time PCR was performed with SYBER Green (Roche) and ABI7500 Realtime PCR system (Applied Biosystems).

MyoD reporter = assay: Luciferase reporter assay, MyoD reporter; format: cell-based; settings: Mus musculus, C2C12, 24 h, C2C12 cells expressing reporter and TAZ WT, differentiation medium 24 hours
Experimental: The effect and its degree on the activity of a reporter, derived from a transcription factor that interacts with TAZ in C2C12 cells, were evaluated. Specifically, C2C12 cells expressing luciferase reporters corresponding to MyoD, TEAD, SMAD and Pax3 and C2C12 cells expressing these luciferase reporters and TAZ were cultured in a culture medium added with IBS008738 or DMSO at a concentration of 10 μM, respectively. […] The line and the error bar indicate the average value and the standard error, *p<0.05, **p<0.01, ns refers to not significant.
Transfection of the luciferase reporters was performed to the C2C12 cells after being plated at 12-well plates (1×10^5 cells/well) and cultured overnight. As the luciferase reporters, pGL3 Myo-184- (MyoD-), 8×GT-IIC-δ51LucII- (TEAD-), 9×CAGA-MLP-(SMAD-), and p(PRS-1/-4)3- (Pax3-) were transfected to the cells alone or with TAZ. These reporter vectors were from Keiji Miyazawa (Yamanashi University), Hiroshi Sasaki (Kumamoto University) and Hiroki Kurihara (The University of Tokyo).
Immediately after the transfection, DMSO or IBS008738 was added at a concentration of 10 μM, respectively. After growing the cells to confluence, the cells were transferred to a differentiation medium with DMSO or IBS008738, and cultured for 24 hours before the luciferase assay.

[1] = system: association of TEAD with CTGF; assay: Chromatin immunoprecipitation, TEAD on CTGF promoter; format: cell-based, mouse; settings: C2C12 cells; 10 μM; differentiation condition 24 hours; protein G sepharose without antibody; listed as IBS008738
Experimental: (1) Chromatin immunoprecipitation of MyoD, TEAD and Pax3 was performed on C2C12 cells that were cultured under differentiation condition for 24 hours in a culture medium added with IBS008738 or DMSO at a concentration of 10 μM. Myogenin, connective tissue growth factor (CTGF) and MyfS were detected by PCR, respectively. The immunoprecipitation with protein G sepharose was used as a control (Mock ChIP). […] The line and the error bar in the figure indicate the average value and the standard error, *p<0.05, ***p<0.001, ns refers to not significant.
The Chromatin immunoprecipitation was performed according to the following process. C2C12 cells were cultured to confluence, and then treated with IBS008738 or DMSO at a concentration of 10 μM in a differentiation medium for 24 hours. The cells were crosslinked in 1.42% (v/v) formaldehyde for 15 minutes, and the reaction was quenched by treating with 125 mM glycine for 5 minutes. […] Shearing was analyzed by agarose gel electrophoresis. […] The immunoprecipitated DNA fragments were isolated using Chelex-100 resin and diluted by 1:2.5 for quantitative PCR analysis. Input normalized relative abundance was determined.

A431 cells = assay: Tumor sphere formation of A431 cells; format: cell-based; settings: Ultra Low Attachment plate, serum-free medium, 10 μM, 10 days, maximum diameter of 30 cell aggregates
Experimental: (2) Each well of a 96-well plate was pre-coated with 30 μL BD Matrigel (trade name, Becton, Dickinson and Company). A431 cells were suspended in the 2% BD Matrigel at a concentration of 2.1×10^6 cells/mL. This cell solution (140 μL) was added with 0.17 μL of 10 mM IBS008739 stock solution in DMSO or 0.17 μL of DMSO, and used to layer the pre-coated wells, and proliferation in the 3D matrigel was observed (see FIG. 12B). 300 of A431 cells were placed in each well of Ultra Low Attachment 96-well plate, and cultured in a serum-free DMEM-F-12 medium containing 10 ng/mL FGF, 5 μg/mL insulin and 0.1% (w/v) BSA. Formation of tumor spheres was observed under the condition with 10 mM IBS008739 stock solution dissolved in DMSO so that the final concentration was 10 μM, or the condition with DMSO of the same volume (see FIG. 12C). The maximum diameter of 30 cell aggregates of 150 μm or more observed in the 3D matrigel or sphere formation condition) are measured as the size of 3D colony or sphere. The results are shown in Table 10 and FIGS. 12B and 12C. The line in the figure is 200 μm. The line and the error bar indicate the average value and the standard error, and ns refers to not significant.
Observation of the spheres and the 3D matrigel cultivation were performed by the following processes. […]

Cc1ccc(-n2cnc(/N=C/N3CCOCC3)c2C(=O)c2ccccc2)cc1 [exemplary compound 1]
degree of gene transcription of calpain 1 (calpain 1; 24 h and 72 h): no increase
Normarized mRNA abundance, Calpain1 (calpain 1; differentiation condition 24 h): 0.84 and 0.81 and 0.98
Normarized mRNA abundance, Calpain1 (calpain 1; differentiation condition 72 h): 1.15 and 1.18 and 1.22
fold induction at 10 µM (MyoD reporter): 6.92
Input %, CTGF-p, Mock ChIP [1]: 0.06% and 0.04%
Sphere size, average size (μm) (A431 cells): 176.63 μm
